Data on 4 molecules can be found in US20210115104A1, “AMYLIN ANALOGUES” (Zealand Pharma A/S, priority 2015, published 2021).

Series [1] can be described thus: Assessment of physical stability (Thioflavin T fibrillation). Type of series: physicochemical. On the set-up: key: FND = fibrillation not detected; FD = fibrillation detected. Conditions: 1 mg/ml, 40° C., ThT; for Fibrillation pH 4.0 (Ac): 50 mM acetate buffer pH 4.0, 96 hours; for Fibrillation pH 7.0 (His): 50 mM histidine buffer pH 7.0, 96 hours; for Fibrillation pH 7.0 (Phos.): 50 mM phosphate buffer pH 7.0, 96 hours. In a few lines: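 Fibrillation lag-time, in hours, taken where regressions of the initial stable phase and the growth phase intersect. ThT (40 μM) fluorescence monitored at 40 °C for 96 h, 10-min reads each preceded by 300 s mixing. Peptide at 1 mg/ml in 50 mM buffers: phosphate or histidine pH 7.0, acetate pH 4.0.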

In series [2] the target is T1, human amylin receptor 3 (hAMYR3), hCTR2 co-expressed with hRAMP3 (Homo sapiens, UniProt O60896+P30988).
T1 construct: expressed in transfected cells
T1 sequence (P30988 25-474): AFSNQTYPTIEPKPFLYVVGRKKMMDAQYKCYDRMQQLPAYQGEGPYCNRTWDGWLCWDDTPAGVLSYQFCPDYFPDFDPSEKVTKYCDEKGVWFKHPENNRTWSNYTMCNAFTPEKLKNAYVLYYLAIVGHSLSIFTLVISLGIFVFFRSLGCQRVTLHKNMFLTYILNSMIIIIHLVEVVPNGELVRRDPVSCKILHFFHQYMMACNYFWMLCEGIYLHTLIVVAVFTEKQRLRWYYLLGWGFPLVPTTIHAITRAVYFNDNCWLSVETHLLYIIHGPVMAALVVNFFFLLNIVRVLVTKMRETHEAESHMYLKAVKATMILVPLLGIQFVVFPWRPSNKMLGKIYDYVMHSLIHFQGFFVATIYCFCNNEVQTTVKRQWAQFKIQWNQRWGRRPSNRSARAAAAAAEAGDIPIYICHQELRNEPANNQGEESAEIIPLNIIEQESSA
T1 sequence (O60896 24-148 partner): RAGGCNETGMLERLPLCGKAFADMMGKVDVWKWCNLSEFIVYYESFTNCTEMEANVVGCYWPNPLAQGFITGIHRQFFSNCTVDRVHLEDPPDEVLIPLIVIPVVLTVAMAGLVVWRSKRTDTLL
In words: hAMYR3 cAMP assay (AlphaScreen) in COS7 cells. The format is cell-based. In a few lines:
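EC50 values derive from 4PL curve fits of cAMP (AlphaScreen) in lysates of RAMP-naive COS7 cells stably carrying hCTR2 plus hRAMP3. Peptide dilution series were applied for 15 min at 37 °C in pH 7.4 Tyrode buffer containing 100 µM IBMX and 0.1% casein.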
On the technique in general: cAMP levels reflect the balance of adenylyl cyclase and phosphodiesterase activity.

For series [3], the target named is T2, human calcitonin receptor (hCTR2) (Homo sapiens, UniProt P30988).
T2 construct: expressed in transfected cells
T2 sequence (P30988 25-474): T1 sequence (P30988 25-474)
Kind of series: hCTR2 cAMP assay (AlphaScreen) in COS7 cells. The format is cell-based. In a few lines:
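cAMP induction, read by AlphaScreen after lysis, gives EC50 values via 4PL curve fitting. Peptides were applied at rising concentrations for 15 min at 37 °C, with IBMX and 0.1% casein in HEPES-buffered Tyrode pH 7.4, to COS7 cells (no endogenous RAMPs) stably expressing human CTR2.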

A short description of series [4]: Assessment of chemical stability (RP-HPLC normalized purity). The format is physicochemical. In a few lines:
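Purity after 7 days at 40° C is expressed relative to T=0 (set to 100) for each pH. Samples at 0.2 mg/ml, pH 4, 6, 7.5 or 9, analyzed by RP-HPLC with UV 220 nm on C8 (ammonium formate) or C18 (TFA) gradients.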

Where [5] appears, read: cAMP induction, COS7 cells expressing hAMYR3, Table 1, read-out: hAMYR3 EC50.
The mark [6] stands for this setting: cAMP induction, COS7 cells expressing hCTR2, Table 1, read-out: hCTR2 EC50.

pEC50: −log10 of the molar value. Read-outs that look alike come from different tables or passages of the source. *1 amine or outer side, *2 acyl side, *3 side chain or, on linkers, in order; H or OH if unused. Where a SMILES comes first, the peptide text is derived from it. Bridges are numbered along the chain shown (N, C = ends). [ ]: non-standard residue; d: D form. The star is where a group is joined. C20 diacid = O=C(O)CCCCCCCCCCCCCCCCCCC(=O)*; γGlu = O=C(O)[C@H](CCC(=O)[*:2])N[*:1]; Hyp = O=C(O)[C@@H]1C[C@@H](O)CN1; NMeI = CC[C@H](C)[C@H](NC)C(=O)O; Aad = N[C@@H](CCCC(=O)O)C(=O)O; Sar = CNCC(=O)O

Broadly, the pEC50 is −log10 of the EC50, conventionally taken in molar units. On to `CC[C@H](C)[C@@H](C(=O)N[C@@H](CC(C)C)C(=O)N[C@@H](CO)C(=O)N[C@@H](CO)C(=O)N[C@H](C(=O)N[C@@H](CCC(=O)O)C(=O)N[C@H](C(=O)NCC(=O)N[C@@H](CO)C(=O)N[C@@H](CCC(=O)O)C(=O)N[C@H](C(=O)N1CCC[C@H]1C(N)=O)[C@@H](C)O)C(C)C)[C@@H](C)O)N(C)C(=O)[C@H](C)NC(=O)CN(C)C(=O)[C@H](Cc1ccccc1)NC(=O)[C@H](CO)NC(=O)[C@H](CO)NC(=O)[C@H](CCCNC(=N)N)NC(=O)[C@H](Cc1c[nH]cn1)NC(=O)[C@H](CC(C)C)NC(=O)[C@H](Cc1ccccc1)NC(=O)[C@H](CC(=O)O)NC(=O)[C@H](C)NC(=O)[C@H](CC(C)C)NC(=O)[C@H](CCCNC(=N)N)NC(=O)[C@H](CCC(N)=O)NC(=O)[C@@H](NC(=O)[C@H](C)NC(=O)[C@@H]1CSSC[C@H](NC(=O)[C@H](CCCNC(=N)N)NC(=O)CC[C@H](NC(=O)CCCCCCCCCCCCCCCCCCC(=O)O)C(=O)O)C(=O)N[C@@H](CC(N)=O)C(=O)N[C@@H]([C@@H](C)O)C(=O)N[C@@H](C)C(=O)N[C@@H]([C@@H](C)O)C(=O)N1)[C@@H](C)O` [Compound 1, [19CD]-isoGlu-R-C( )-NTAT-C( )-ATQRLADFLHRSSF-Gly(Me)-A-Ile(Me)-LSSTEVGSETP-NH2] ({C20 diacid-γGlu}-RCNTATCATQRLADFLHRSSF[Sar]A[NMeI]LSSTEVGSETP-NH2; disulfide 2-7), for which, in series [1], the “Fibrillation pH 4.0 (Ac)” value is on record as “FND”, the “Fibrillation pH 7.0 (His)” value is reported as “FND” and the “Fibrillation pH 7.0 (Phos.)” value is recorded as “FND”. Moreover, the negative-log EC50 (pEC50) in series [2] (setting [5]) is 9.64. Moreover, the pEC50 in series [3] (setting [6]) is 10.10.
With `CC[C@H](C)[C@@H](C(=O)N[C@@H](CC(C)C)C(=O)N[C@@H](CO)C(=O)N[C@@H](CO)C(=O)N[C@H](C(=O)N[C@@H](CCC(=O)O)C(=O)N[C@H](C(=O)NCC(=O)N[C@@H](CO)C(=O)N[C@@H](CCC(=O)O)C(=O)N[C@H](C(=O)N1CCC[C@H]1C(N)=O)[C@@H](C)O)C(C)C)[C@@H](C)O)N(C)C(=O)[C@H](C)NC(=O)CN(C)C(=O)[C@H](Cc1ccccc1)NC(=O)[C@@H](NC(=O)[C@H](CO)NC(=O)[C@H](CCCNC(=N)N)NC(=O)[C@H](Cc1c[nH]cn1)NC(=O)[C@H](CC(C)C)NC(=O)[C@H](Cc1ccccc1)NC(=O)[C@H](Cc1c[nH]cn1)NC(=O)[C@H](C)NC(=O)[C@H](CC(C)C)NC(=O)[C@H](CCCNC(=N)N)NC(=O)[C@H](CCC(N)=O)NC(=O)[C@@H](NC(=O)[C@H](C)NC(=O)[C@@H]1CSSC[C@H](NC(=O)[C@H](CCCNC(=N)N)NC(=O)CC[C@H](NC(=O)CCCCCCCCCCCCCCCCCCC(=O)O)C(=O)O)C(=O)N[C@@H](CC(N)=O)C(=O)N[C@@H]([C@@H](C)O)C(=O)N[C@@H](C)C(=O)N[C@@H]([C@@H](C)O)C(=O)N1)[C@@H](C)O)C(C)C` [Compound 20, [19CD]-isoGlu-R-C( )-NTAT-C( )-ATQRLAHFLHRSVF-Gly(Me)-A-Ile(Me)-LSSTEVGSETP-NH2] ({C20 diacid-γGlu}-RCNTATCATQRLAHFLHRSVF[Sar]A[NMeI]LSSTEVGSETP-NH2; disulfide 2-7), in series [1], the “Fibrillation pH 4.0 (Ac)” value is on record as “FND”, the “Fibrillation pH 7.0 (His)” value was “FD” and the “Fibrillation pH 7.0 (Phos.)” value is given as “FND”. Besides, the pEC50 in series [2] (setting [5]) is 9.48. Also, the pEC50 in series [3] (setting [6]) is 9.72.
For `CC[C@H](C)[C@@H](C(=O)N[C@@H](CC(C)C)C(=O)N[C@@H](CO)C(=O)N[C@@H](CO)C(=O)N[C@H](C(=O)N[C@@H](CCC(=O)O)C(=O)N[C@H](C(=O)NCC(=O)N[C@@H](CO)C(=O)N[C@@H](CCC(=O)O)C(=O)N[C@H](C(=O)N1CCC[C@H]1C(N)=O)[C@@H](C)O)C(C)C)[C@@H](C)O)N(C)C(=O)[C@H](C)NC(=O)CN(C)C(=O)[C@H](Cc1ccccc1)NC(=O)[C@H](CO)NC(=O)[C@@H](NC(=O)[C@H](CCCNC(=N)N)NC(=O)[C@H](Cc1c[nH]cn1)NC(=O)[C@H](CC(C)C)NC(=O)[C@H](Cc1ccccc1)NC(=O)[C@H](Cc1c[nH]cn1)NC(=O)[C@H](C)NC(=O)[C@H](CC(C)C)NC(=O)[C@H](CCCNC(=N)N)NC(=O)[C@H](CCC(N)=O)NC(=O)[C@@H](NC(=O)[C@H](C)NC(=O)[C@@H]1CSSC[C@H](NC(=O)[C@H](CCCNC(=N)N)NC(=O)CC[C@H](NC(=O)CCCCCCCCCCCCCCCCCCC(=O)O)C(=O)O)C(=O)N[C@@H](CC(N)=O)C(=O)N[C@@H]([C@@H](C)O)C(=O)N[C@@H](C)C(=O)N[C@@H]([C@@H](C)O)C(=O)N1)[C@@H](C)O)C(C)C` [Compound 21, [19CD]-isoGlu-R-C( )-NTAT-C( )-ATQRLAHFLHRVSF-Gly(Me)-A-Ile(Me)-LSSTEVGSETP-NH2] ({C20 diacid-γGlu}-RCNTATCATQRLAHFLHRVSF[Sar]A[NMeI]LSSTEVGSETP-NH2; disulfide 2-7), in series [1], the “Fibrillation pH 4.0 (Ac)” value is recorded as “FND”, the “Fibrillation pH 7.0 (His)” value is given as “FD” and the “Fibrillation pH 7.0 (Phos.)” value is reported as “FD”. In series [2] (setting [5]), the pEC50 was 9.64. Further, in series [3] (setting [6]), the pEC50 was 9.92.
`CC[C@H](C)[C@@H](C(=O)N[C@@H](CC(C)C)C(=O)N[C@@H](CO)C(=O)N[C@@H](CO)C(=O)N[C@H](C(=O)N[C@@H](CCC(=O)O)C(=O)N[C@H](C(=O)NCC(=O)N[C@@H](CO)C(=O)N[C@@H](CC(N)=O)C(=O)N[C@H](C(=O)N1C[C@H](O)C[C@H]1C(N)=O)[C@@H](C)O)C(C)C)[C@@H](C)O)N(C)C(=O)[C@H](C)NC(=O)CN(C)C(=O)[C@H](Cc1ccccc1)NC(=O)[C@H](CC(N)=O)NC(=O)[C@H](CC(N)=O)NC(=O)[C@H](CO)NC(=O)[C@H](CO)NC(=O)[C@H](CCCNC(=N)N)NC(=O)[C@H](CCC(N)=O)NC(=O)[C@H](CC(C)C)NC(=O)[C@H](Cc1ccccc1)NC(=O)[C@H](CCCC(=O)O)NC(=O)[C@H](C)NC(=O)[C@H](CC(C)C)NC(=O)[C@H](CCCNC(=N)N)NC(=O)[C@H](CC(=O)O)NC(=O)[C@@H](NC(=O)[C@H](C)NC(=O)[C@@H]1CSSC[C@H](NC(=O)[C@H](CCCNC(=N)N)NC(=O)CC[C@H](NC(=O)CCCCCCCCCCCCCCCCCCC(=O)O)C(=O)O)C(=O)N[C@@H](CCC(N)=O)C(=O)N[C@@H]([C@@H](C)O)C(=O)N[C@@H](C)C(=O)N[C@@H]([C@@H](C)O)C(=O)N1)[C@@H](C)O` [Compound 100, [19CD]-isoGlu-R-C( )-QTAT-C( )-ATDRLA-Aad-FLQRSSNNF-Gly(Me)-A-Ile(Me)-LSSTEVGSNT-Hyp-NH2, reference compound] ({C20 diacid-γGlu}-RCQTATCATDRLA[Aad]FLQRSSNNF[Sar]A[NMeI]LSSTEVGSNT[Hyp]-NH2; disulfide 2-7): the pEC50 in series [2] is 9.28; in series [3], 8.66. In series [4] (pH 4, repeat of Example 6 for pairs with/without Asn-Asn at 21-22), the “Normalized purity pH 4 (Table 5)” value is “A (A = >90%)”. Besides, the “Normalized purity pH 6 (Table 5)” value in series [4] (pH 6, repeat of Example 6 for pairs with/without Asn-Asn at 21-22) is listed as “A (A = >90%)”. The “Normalized purity pH 7.5 (Table 5)” value in series [4] (pH 7.5, repeat of Example 6 for pairs with/without Asn-Asn at 21-22) is recorded as “A (A = >90%)”. Also, in series [4] (pH 9, repeat of Example 6 for pairs with/without Asn-Asn at 21-22), the “Normalized purity pH 9 (Table 5)” value is listed as “B (B = 70-90%)”.
